In general, melting point refers to the temperature, or range, at which the solid turns liquid.

The subject of data set [1] is histamine-induced vascular hyperpermeability. Kind of data set: Rat histamine-induced vascular hyperpermeability reaction (in vivo antihistamine action). The note with it: SD male rat, oral administration 1 hour before intracutaneous histamine (20 μg/location), Evans Blue leakage after 30 minutes. The protocol:
Rat Histamine-Induced Vascular Hyperpermeability Reaction (in Vivo Antihistamine Action)
An SD male rat (SPF) of 180 g in weight was previously fed for one week or more by allowing the rat to take a solid feed and tap water ad libitum, under the environment setting of a temperature of 22° C., humidity of 55% and an artificial illumination of 12 hours a day (light phase 8 am to 8 pm), and the rat was fasted overnight to be used for the experiment. Histamine-dihydrochloride (hereinafter referred to as histamine) and Evans Blue were used by dissolving each in physiological saline upon use. A substance to be tested was dissolved in water for injection or suspended in 0.5% carboxymethyl cellulose sodium, and the rat was orally administered with the solution or suspension (dose volume: 5 mL/kg body weight). After 1 hour from the administration, the physiological saline and the histamine solution were each intracutaneously injected to two locations (20 μg/0.05 ml/location) each on a back part of the rat of which hair was sheared with an electric clipper while anesthetizing with an ether. A 0.5% Evans Blue-containing physiological saline was injected intravenously to the tail (1 mL/200 g body weight) of the rat immediately before the intracutaneous injection of the histamine.
After 30 minutes, the animal was decapitated, and allowed to bleed lethally, and the skin was removed to measure an amount of leaked pigment in the blue-stained portion. The measurement of the amount of leaked pigment was carried out as follows. Skins of the pigment leaking site were cut out at two locations, 1 mL of a 2 mol/L aqueous potassium hydroxide solution was added thereto in a test tube, and the test tube was allowed to stand overnight at 37° C. to dissolve. Thereafter, 6 mL of a 1:3 mixed solution of 0.67 mol/L phosphoric acid and acetone was added to the solution, and the mixture was vigorously shaken for 10 minutes. Thereafter, the mixture was filtered, and the absorbance of the filtrate at 620 nm was measured. The absorbance obtained from the two locations of the sites injected with physiological saline, obtained as blank value, was used for a compensation. The amount of leaked pigment was calculated from the calibration curve of Evans Blue at 620 nm.

The next data set deals with T1, H1 receptor (Mus musculus, UniProt P70174).
T1 construct: The excised brain tissue was homogenized with Polytron; from tissue; host or cells: entire brain except cerebellum and medulla oblongata, homogenate
T1 sequence (P70174 whole entry): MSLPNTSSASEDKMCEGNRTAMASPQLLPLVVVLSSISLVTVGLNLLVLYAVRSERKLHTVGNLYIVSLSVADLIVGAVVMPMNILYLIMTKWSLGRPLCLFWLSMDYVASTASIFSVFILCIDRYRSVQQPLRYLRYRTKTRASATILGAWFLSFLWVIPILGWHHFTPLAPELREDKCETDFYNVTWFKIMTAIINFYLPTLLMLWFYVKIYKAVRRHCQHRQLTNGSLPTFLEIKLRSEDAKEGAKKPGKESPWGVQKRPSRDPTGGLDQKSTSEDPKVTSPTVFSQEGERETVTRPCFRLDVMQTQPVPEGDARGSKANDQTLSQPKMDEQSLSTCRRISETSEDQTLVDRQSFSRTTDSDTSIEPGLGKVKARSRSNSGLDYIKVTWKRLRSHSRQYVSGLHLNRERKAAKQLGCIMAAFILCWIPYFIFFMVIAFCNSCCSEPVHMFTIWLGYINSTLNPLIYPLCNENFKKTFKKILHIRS
The experiment in a line: Murine intracranial H1 receptor content (ex vivo), 3H-pyrilamine binding in brain homogenate after oral dosing. Particulars: for ID50 (mg/kg)/ED50 (mg/kg): ID50 of intracranial receptor binding test (Table 7) divided by ED50 of histamine-induced vascular hyperpermeability test (Table 6); for ED50: mouse.

The mark [2] stands for this setting: oral administration, brain excised after 1 hour, 3H-pyrilamine 2 nmol/L binding to brain homogenate, read-out: ID50 (the source's name).

Where two headings read alike, the source gives them in different places.

With `CN1CCC(=C2c3ccccc3COc3ccc(CN)cc32)CC1.Cl.Cl`, the melting point was 140 °C (dec.). The same measure, in the same setting: under `CCOC(=O)c1ccc2c(c1)C(=C1CCN(C)CC1)c1ccccc1CO2.Cl` stands 270 °C (dec.); under `CN1CCC(=C2c3ccccc3COc3ccc(C=CCO)cc32)CC1.Cl`, 118 °C (dec.). As for `COC(=O)C=Cc1ccc2c(c1)C(=C1CCN(C)CC1)c1ccccc1CO2.Cl`, the melting point was 244 °C (dec.).

Take `CN1CCC(=C2c3ccccc3COc3ccc(C(=O)O)cc32)CC1` [Compound 1, 11-(1-Methylpiperidin-4-ylidene)-6,11-dihydrodibenz[b,e]oxepin-2-carboxylic acid]: the ED50 was 0.046 mg/kg in data set [1] and 1.25 mg/kg at H1 receptor (setting [2]). For the same molecule, the “ID50 (mg/kg)/ED50 (mg/kg)” value at H1 receptor stood at 27.2. Regarding `CCOC(=O)CNC(=O)c1ccc2c(c1)C(=C1CCN(C)CC1)c1ccccc1CO2` [Compound 3, Ethyl {[11-(1-methylpiperidin-4-ylidene)-6,11-dihydrodibenz[b,e]oxepin-2-carbonyl]amino}acetate], the melting point is 175 to 178 °C. `CN1CCC(=C2c3ccccc3COc3ccc(Br)cc32)CC1` [Compound 4, 4-(2-Bromo-6H-dibenz[b,e]oxepin-11-ylidene)-1-methylpiperidine]: the melting point lay in the range of 131 to 132 °C. Take `CN1CCC(=C2c3ccccc3COc3ccc(C=CC(=O)O)cc32)CC1` [Compound 7, 3-[11-(1-Methylpiperidin-4-ylidene)-6,11-dihydrodibenz[b,e]oxepin-2-yl]acrylic acid]: the melting point is 145 °C (dec.). In data set [1], the ED50 was 0.3 mg/kg. Further, the “ID50 (mg/kg)/ED50 (mg/kg)” value at H1 receptor was found to be 4.4. Also, at H1 receptor (setting [2]), the ED50 was determined as 1.32 mg/kg. With `CN1CCC(=C2c3ccccc3COc3ccc(-c4nn[nH]n4)cc32)CC1` [Compound 8, 1-Methyl-4-[2-(2H-tetrazol-5-yl)-6H-dibenz[b,e]oxepin-11-ylidene]piperidine], the melting point is 225 °C (dec.). Take `CN1CCC(=C2c3ccccc3COc3ccc(CNC(=O)OC(C)(C)C)cc32)CC1` [Compound 9, tert-Butyl [11-(1-methylpiperidin-4-ylidene)-6,11-dihydrodibenz[b,e]oxepin-2-ylmethyl]carbamate]: the melting point was 145 to 148 °C. Molecule `CN1CCC(=C2c3ccccc3COc3cc(Br)ccc32)CC1` [Compound 12, 4-(3-Bromo-6H-dibenz[b,e]oxepin-11-ylidene)-1-methylpiperidine] displayed a melting point of 127 to 128 °C. Regarding `CN1CCC(=C2c3ccccc3COc3cc(C#N)ccc32)CC1` [Compound 13, 11-(1-Methylpiperidin-4-ylidene)-6,11-dihydrodibenz[b,e]oxepin-3-carbonitrile], the melting point fell in the range of 175 to 176 °C.

In the case of `CCOC(=O)NCc1ccc2c(c1)C(=C1CCN(C)CC1)c1ccccc1CO2` [Compound 14, Ethyl [11-(1-methylpiperidin-4-ylidene)-6,11-dihydrodibenz[b,e]oxepin-2-ylmethyl]carbamate], the melting point was in the range of 135 to 136 °C. Still for that read-out and setting: in the case of `CC(=O)NCc1ccc2c(c1)C(=C1CCN(C)CC1)c1ccccc1CO2` [Compound 15, N-[11-(1-Methylpiperidin-4-ylidene)-6,11-dihydrodibenz[b,e]oxepin-2-ylmethyl]acetamide] it was 195 to 196 °C. `Cc1ccc2c(c1)C(=C1CCN(C)CC1)c1ccccc1CO2` [Compound 16, 1-Methyl-4-(2-methyl-6H-dibenz[b,e]oxepin-11-ylidene)-piperidine] registered a melting point of 133 to 134 °C.

In the case of `CN1CCC(=C2c3ccccc3COc3cc(C(=O)O)ccc32)CC1` [Compound 18, 11-(1-Methylpiperidin-4-ylidene)-6,11-dihydrodibenz[b,e]oxepin-3-carboxylic acid], the melting point lay within 208 to 212 °C. `CN1CCC(=C2c3ccccc3COc3ccc(C(=O)NCCO)cc32)CC1` [Compound 19, N-(2-Hydroxyethyl)-11-(1-methylpiperidin-4-ylidene)-6,11-dihydrodibenz[b,e]oxepin-2-carboxamide] returned a melting point of 234 to 236 °C. On to `CN1CCC(=C2c3ccccc3COc3ccc(CNC(=O)c4ccccc4)cc32)CC1` [Compound 20, N-[11-(1-Methylpiperidin-4-ylidene)-6,11-dihydrodibenz[b,e]oxepin-2-ylmethyl]benzamide], for which the melting point was 218 to 219 °C. In turn, `CN1CCC(=C2c3ccccc3COc3ccc(CO)cc32)CC1` [Compound 21, [11-(1-Methylpiperidin-4-ylidene)-6,11-dihydrodibenz[b,e]oxepin-2-yl]methanol] returned a melting point of 140 to 143 °C.

`CN1CCC(=C2c3ccccc3COc3ccc(C=O)cc32)CC1` [Compound 23, 11-(1-Methylpiperidin-4-ylidene)-6,11-dihydrodibenz[b,e]oxepin-2-carboaldehyde] yielded a melting point of 157 to 160 °C. `CN1CCC(=C2c3ccccc3COc3ccc(CNC(=O)CCC(=O)O)cc32)CC1` [Compound 26, N-[11-(1-Methylpiperidin-4-ylidene)-6,11-dihydrodibenz[b,e]oxepin-2-ylmethyl]succinamic acid]: the melting point was 144 °C (dec.). The same measure, in the same setting: under `CCOC(=O)CCC(=O)NCc1ccc2c(c1)C(=C1CCN(C)CC1)c1ccccc1CO2` [Compound 27, Ethyl N-[11-(1-methylpiperidin-4-ylidene)-6,11-dihydrodibenz[b,e]oxepin-2-ylmethyl]succinamate] stands 150 to 152 °C; under `CN1CCC(=C2c3cc(C(=O)O)ccc3COc3ccccc32)CC1` [Compound 28, 11-(1-Methylpiperidin-4-ylidene)-6,11-dihydrodibenz[b,e]oxepin-9-carboxylic acid], 251 °C (dec.); under `CCOC(=O)c1ccc2c(c1)C(=C1CCN(C)CC1)c1ccccc1OC2` [Compound 29, Ethyl 11-(1-methylpiperidin-4-ylidene)-6,11-dihydrodibenz[b,e]oxepin-9-carboxylate], 124 °C (dec.). Consider `CCOC(=O)C=Cc1cccc2c1OCc1ccccc1C2=C1CCN(C)CC1` [Compound 31, Ethyl 3-[11-(1-methylpiperidin-4-ylidene)-6,11-dihydrodibenz[b,e]oxepin-4-yl]acrylate], for which the melting point was 126 to 127 °C. With `CN1CCC(=C2c3ccccc3COc3c(C=CC(=O)O)cccc32)CC1` [Compound 32, 3-[11-(1-Methylpiperidin-4-ylidene)-6,11-dihydrodibenz[b,e]oxepin-4-yl]acrylic acid], the melting point was 188 °C (dec.). `CN1CCC(=C2c3ccc(C(=O)O)cc3COc3ccccc32)CC1` [Compound 33, 11-(1-Methylpiperidin-4-ylidene)-6,11-dihydrodibenz[b,e]oxepin-8-carboxylic acid]: the melting point is 210 °C (dec.). Still for that read-out and setting: under `CN1CCC(=C2c3ccccc3COc3c(C#N)cccc32)CC1` [Compound 34, 11-(1-Methylpiperidin-4-ylidene)-6,11-dihydrodibenz[b,e]oxepin-4-carbonitrile] stands 175 to 178 °C. In the case of `CCOC(=O)C=Cc1ccc2c(c1)OCc1ccccc1C2=C1CCN(C)CC1` [Compound 35, Ethyl 3-[11-(1-methylpiperidin-4-ylidene)-6,11-dihydrodibenz[b,e]oxepin-3-yl]acrylate], the melting point lay in the range of 173 to 175 °C. Consider `CCOC(=O)c1cccc2c1OCc1ccccc1C2=C1CCN(C)CC1` [Compound 36, Ethyl 11-(1-methylpiperidin-4-ylidene)-6,11-dihydrodibenz[b,e]oxepin-4-carboxylate], for which the melting point was 124 °C (dec.). Take `CN1CCC(=C2c3ccccc3COc3c(C(=O)O)cccc32)CC1` [Compound 37, 11-(1-Methylpiperidin-4-ylidene)-6,11-dihydrodibenz[b,e]oxepin-4-carboxylic acid]: the melting point is 233 °C (dec.).

With `CN1CCC(=C2c3ccccc3COc3ccc(CCC(=O)O)cc32)CC1.Cl` [Compound 43, 3-[11-(1-Methylpiperidin-4-ylidene)-6,11-dihydrodibenz[b,e]oxepin-2-yl]propionate hydrochloride], the ED50 is 0.1 mg/kg in data set [1] and below 2 mg/kg at H1 receptor (po, 1 h, read-out: ID50). Moreover, the “ID50 (mg/kg)/ED50 (mg/kg)” value at H1 receptor was above 20.0. Take `CN1CCC(=C2c3ccccc3CC(=O)c3sccc32)CC1` [Ketotifen, reference compound]: the ED50 in data set [1] is 0.54 mg/kg.
